Reference: the supplement of paper PMC10331698
± gives the standard deviation of the averaged measurements.

Legend:
Assay in all cases: level (log10 ratio to DMSO vehicle control); higher = higher biomarker level / cell amount than vehicle control
Details in all cases: in DMSO
[1] = compound: FC(F)(F)C(F)(C(F)(F)F)C(F)(F)C(F)(F)CC1CO1 [3-(Perfluoro-3-methylbutyl)-1,2-propenoxide]
Experimental: (§1)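 BioMAP Diversity Plus panel of 12 human primary cell co-culture systems (3C, 4H, LPS, SAg, BT, BF4T, BE3C, CASM3C, HDF3CGF, KF3CT, MyoF, Mphg). Compounds were added 1 h before stimulation and left for 24 h (MyoF 48 h; BT 72 h for soluble read-outs or 6 d for IgG). Biomarkers were read by ELISA, cytotoxicity by SRB, PBMC viability and proliferation by Alamar Blue. Each well value was divided by the mean of 8 DMSO control wells on the same plate and log10 transformed; duplicate blinded samples were tested at 4 concentrations.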

[2] = compound: FC(F)(F)C(F)(F)C(F)(F)C(F)(F)C(F)(F)C(F)(F)I [Perfluoro-1-iodohexane]
Experimental: as §1

[3] = compound: FC(F)C(F)(F)COCC1CO1 [((2,2,3,3-Tetrafluoropropoxy)methyl)oxirane]
Experimental: as §1

[4] = compound: O=C(O)C(F)(F)C(F)(F)C(F)(F)F [Perfluorobutanoic acid]
Experimental: as §1

[5] = compound: O=C(O)C(F)(F)C(F)(F)OC(F)(F)F [Perfluoro-3-methoxypropanoic acid]
Experimental: as §1

[6] = compound: O=S(=O)(O)C(F)(F)C(F)(F)C(F)(F)C(F)(F)C(F)(F)C(F)(F)F [Perfluorohexanesulfonic acid]
Experimental: as §1

[7] = compound: OCC(F)(F)OC(F)(F)C(F)(F)OC(F)(F)CO [1H,1H,8H,8H-Perfluoro-3,6-dioxaoctane-1,8-diol]
Experimental: as §1

Test System | level (log10) ([1]; 6700 nM) | level (log10) ([1]; 20000 nM) | level (log10) ([2]; 6700 nM) | level (log10) ([2]; 20000 nM) | level (log10) ([2]; 60000 nM) | level (log10) ([3]; 6700 nM) | level (log10) ([3]; 20000 nM) | level (log10) ([3]; 60000 nM) | level (log10) ([4]; 6700 nM) | level (log10) ([4]; 20000 nM) | level (log10) ([4]; 60000 nM) | level (log10) ([5]; 6700 nM) | level (log10) ([5]; 20000 nM) | level (log10) ([5]; 60000 nM) | level (log10) ([6]; 6700 nM) | level (log10) ([6]; 20000 nM) | level (log10) ([6]; 60000 nM) | level (log10) ([7]; 6700 nM) | level (log10) ([7]; 20000 nM) | level (log10) ([7]; 60000 nM)
CASM3C:CD142/Tissue Factor | -0.038 ± 0.047 | -0.033 ± 0.014 | -0.009 ± 0.013 | -0.018 ± 0.0042 | -0.031 | 0.0075 ± 0.013 | -0.0005 ± 0.037 | 0.0385 ± 0.083 | -0.002 | 0.007 ± 0.0099 | -0.0505 ± 0.00071 | -0.022 ± 0.027 | -0.0145 ± 0.04 | -0.0025 ± 0.037 | 0.0145 ± 0.047 | -0.0005 ± 0.023 | 0.005 ± 0.0014 | -0.014 ± 0.0099 | -0.013 ± 0.023 | 0.0165 ± 0.0064
HDF3CGF:SRB | 0.0005 ± 0.057 | 0.0145 ± 0.06 | 0.021 ± 0.035 | 0.0085 ± 0.018 | -0.0085 ± 0.067 | 0.004 ± 0.0057 | -0.002 ± 0.02 | -0.011 ± 0.1 | 0.0125 ± 0.0064 | -0.007 ± 0.0028 | 0.002 ± 0.0071 | -0.0005 ± 0.042 | 0.014 ± 0.0071 | 0 ± 0.023 | 0.017 ± 0.011 | 0.0145 ± 0.022 | -0.009 ± 0.0085 | -0.031 ± 0.0057 | 0.0405 ± 0.033 | -0.0505 ± 0.016
KF3CT:CXCL10/IP-10 | -0.009 ± 0.016 | -0.026 ± 0.014 | 0.005 ± 0.0014 | 0.001 ± 0.0028 | 0.0065 ± 0.0092 | -0.002 ± 0.0028 | -0.0005 ± 0.0035 | -0.0015 ± 0.022 | 0.008 ± 0.0042 | -0.005 ± 0.0014 | -0.002 ± 0.0028 | 0.011 ± 0.023 | 0.027 ± 0.034 | 0.03 ± 0.016 | -0.006 | -0.016 ± 0.0028 | -0.022 ± 0.016 | 0.0025 ± 0.005 | -0.001 ± 0.0028 | 0.004 ± 0.0028
lMphg:SRB | -0.007 ± 0.014 | -0.0045 ± 0.0078 | -0.0055 ± 0.00071 | -0.0025 ± 0.0035 | 0.0035 ± 0.0078 | -0.008 ± 0.0042 | 0 ± 0.0028 | -0.0125 ± 0.0021 | -0.012 ± 0.017 | -0.0235 ± 0.037 | 0.002 ± 0.031 | -0.006 ± 0.0014 | -0.0185 ± 0.005 | 0 ± 0.0028 | -0.016 ± 0.037 | -0.0045 ± 0.0078 | -0.0265 ± 0.029 | -0.028 ± 0.021 | 0.015 | -0.0375 ± 0.0021
lMphg:CCL2/MCP-1 | -0.0165 ± 0.012 | 0.0075 ± 0.012 | -0.021 ± 0.0099 | 0.0145 ± 0.032 | -0.003 ± 0.025 | -0.039 ± 0.034 | -0.018 ± 0.048 | -0.0095 ± 0.029 | -0.0205 ± 0.021 | -0.0165 ± 0.018 | 0.0135 ± 0.022 | -0.0175 ± 0.025 | -0.0225 ± 0.029 | -0.0075 ± 0.028 | -0.014 ± 0.0085 | 0.006 ± 0.037 | 0.054 ± 0.024 | -0.0115 ± 0.0035 | -0.0145 ± 0.012 | 0.0155 ± 0.012
HDF3CGF:CD106/VCAM-1 | -0.0045 ± 0.012 | -0.0245 ± 0.025 | -0.027 ± 0.024 | -0.032 ± 0.014 | -0.405 ± 0.44 | -0.001 ± 0.016 | -0.0075 ± 0.023 | -0.0295 ± 0.037 | -0.008 ± 0.0014 | 0.0295 ± 0.026 | -0.0085 ± 0.015 | -0.008 ± 0.02 | 0.0165 ± 0.052 | -0.0005 ± 0.036 | 0.0105 ± 0.011 | 0.0165 ± 0.00071 | -0.0155 ± 0.0035 | -0.0145 ± 0.011 | -0.0145 ± 0.026 | 0.0115 ± 0.018
